Experimental data as given in paper PMC11219945, “Assessing genotoxic effects of chemotherapy agents by a robust in vitro assay based on mass spectrometric quantification of γ-H2AX in HepG2 cells” (Frontiers in Pharmacology, 2024).

Key:
γ-H2AX in HepG2 cells [1] = assay: γ-H2AX MS assay, dose-effect relationship in HepG2 cells; details: human, 24 h
Description: Human hepatoblastoma cells (HepG2) were cultivated in DMEM medium under standard conditions (37°C in a 5% CO2 atmosphere). The culturing medium was added with 10% FBS, 100 U/mL penicillin and 100 μg/mL streptomycin.
In accordance to our previous study, cells were exposed to the chemotherapeutic agent by adding a proper volume of chemotherapeutic agent stock solution to the fresh medium without serum. Controls were treated with DMSO (0.1%) in medium. Independent biological experiments with three technical replicates were conducted.
The cells were then treated with different chemotherapy agents in serum-free medium. For a dose-effect relationship experiment, cells were exposed to each agent at either of three concentrations with a 10-fold increase for 24 h. For the time-effect relationship experiment of nine tested chemotherapy agents, cells were exposed to selected chemotherapy agents at 0.5, 1, 2, 4, 8, 12, and 24 h, with the concentration of 100 μM. Independent biological experiments with three technical replicates were performed.
(§1) The quantification of γ-H2AX was carried out according to the previous report ([Qu et al., 2021]). In short, the cell clumps were collected after a certain period of cell culture and histones were obtained by acid extraction. After nuclear isolation, histone extraction, trypsin digestion in the solution, and desalting, the peptide sample from the carboxy terminus of H2AX was analyzed. LC–MS/MS analysis was conducted using a QTRAP 5500 (AB Sciex, Framingham, United States) with an ACQUITY UPLC system (Waters Co., Manchester, United Kingdom). Chromatographic separation was carried out with an ACQUITY UPLC BEH C18 column (100 mm × 2.1 mm, 1.7 μm). The column temperature was maintained at 40°C. A 10 μL sample aliquot was injected for analysis. Mobile phases A and B were 0.1% FA in distilled H2O and acetonitrile, respectively. […] The eluent composition was maintained for 2 min, after which the system returned to 1% B and was re-equilibrated for 2 min. The eluates in the first 1 min were switched to waste to prevent contaminating the ion source. The electrospray ionization source was operated in positive mode using nitrogen as the nebulizing gas. All experiments were performed independently in at least triplicate.
To this end, we firstly examined the cytotoxicity of 34 chemotherapy agents, all of which were already well classified in terms of diverse characteristics. These tested chemotherapy agents were serially diluted for exposure to check the effects on cell viability.

γ-H2AX in HepG2 cells [2] = assay: γ-H2AX time-effect relationship / DNA repair kinetics (k, t50) in HepG2 cells; assay type: cell-based, Human; design: k (speed of γ-H2AX descending): unit not given here; details: 100 μM, 0.5–8 h time-dependent kinetics
Description: The cells were then treated with different chemotherapy agents in serum-free medium. […] Independent biological experiments with three technical replicates were performed.
as §1, with “In” for “The quantification of γ-H2AX was carried out according to the previous report ([Qu et al., 2021]). In”
Here, we estimated k and t50 after exposure to nine representative chemotherapy agents based on the 0.5–8 h γ-H2AX time-dependent kinetics (Figure 5) and then obtained these parameters to describe each agent DSB repair capacity using the functions optim and optimize in R language.

[3] = design: method as in earlier work; details: ref IARC; cited from earlier work
[4] = combination of in vitro mouse lymphoma, chromosomal aberration, and micronucleus tests; cited from earlier work

| Compound | maximum γ-H2AX value within the selected concentration range (γ-H2AX in HepG2 cells [1]) | k (speed of γ-H2AX descending) (γ-H2AX in HepG2 cells [2]) | t50 (time required for γ-H2AX to drop to half of the maximum value) (γ-H2AX in HepG2 cells [2]) | IARC classification group [3] | In vitro assays (genotoxicity) [4] |
| --- | --- | --- | --- | --- | --- |
| COc1cccc2c1C(=O)c1c(O)c3c(c(O)c1C2=O)C[C@@](O)(C(C)=O)C[C@@H]3O[C@H]1C[C@H](N)[C@H](O)[C@H](C)O1 [Daunorubicin] | 23 | 0.139 | 3.344 h | 2B | + |
| COc1cccc2c1C(=O)c1c(O)c3c(c(O)c1C2=O)C[C@@](O)(C(=O)CO)C[C@@H]3O[C@H]1C[C@H](N)[C@H](O)[C@H](C)O1 [Doxorubicin] | 21 | 0.088 | 4.269 h | 2A | + |
